From paper PMC5041982, “Small-molecule inhibition of STAT3 in radioresistant head and neck squamous cell carcinoma” (Oncotarget, 2016)

Experiments:
STAT3 = STAT3 (Homo sapiens, UniProt P40763); test: STAT3/pY-peptide binding surface plasmon resonance (SPR) assay; details: for IC50: STAT3 200 nM, EGFR pY1068 dodecapeptide, mean, n ≥ 2, read-out: pY-Peptide Binding (SPR) IC50; for Inhibition of STAT3 binding to pY-peptide compared with C188: SPR
Method: The equilibrium binding levels obtained ± compound were normalized (resonance obtained in the presence of compound ÷ the resonance obtained in the absence of compound × 100) and plotted against Log [nM] […] B. Inhibition of ligand-stimulated STAT phosphorylation, measured by phosphoflow. Serum-starved (1 hour) Kasumi-1 cells, pre-incubated with compound/DMSO (1 hour), were treated with G-CSF (10 ng/ml, 15 min, left two panels) or IFN-γ (10ng/ml, 15 min, right panel). Cells were permeabilized and stained with Alexa647-pSTAT3, and PE-pSTAT1 antibodies and analyzed on BD LSR2. FCS files were uploaded to Cytobank for pSTAT3 and pSTAT1 quantitation. Histograms depicting pSTAT3 and pSTAT1 levels are shown. C. Mean fluorescence (pSTAT3/1) levels were plotted as function the Log [M] compound, and IC50 calculated using GraphPad. […] D. Inhibition of ligand-stimulated STAT phosphorylation, measured by Luminex. Serum-starved (1 hour) Kasumi-1 cells, pre-incubated with compound/DMSO (0/0.1/0.3/1/3/10/100 μM, 1 hour), were treated with G-CSF (10 ng/ml, 15′). Total protein extracts of cells were assayed for pSTAT3, pSTAT1, and GAPDH levels by Luminex. GAPDH-normalized pSTAT3 or pSTAT1 values were divided by this ratio for untreated cells and expressed in percentage. These values were plotted as a function of Log [M] compound, and IC50 values calculated using GraphPad. […]
3-D pharmacophore sorting used to evaluate the effect of each compound on STAT3 binding. Responses were normalized by dividing the […]
fingerprint screening were converted into 3-D structures compounds at 2 min and multiplying by 100. IC values […]
for analysis as described below. were determined by plotting % maximum response as a 3-D pharmacophore generation function of log concentration of compound and fitting the Each molecular chemical feature, including experimental points to a competitive binding model using hydrogen bond donor, hydrogen bond acceptor, positive a four parameter logistic equation: R = Rhigh − (Rhigh − R low)/ (1 + conc/A1)^A2, where R = percent response at and negative ionizable group, and hydrophobic region, inhibitor concentration, R = percent response with no was generated using the LigandScout application compound, R= percent response at highest compound high framework and projected into 3-D space. concentration, A2 = fitting parameter (slope) and A1 = low Feature-pairing IC50 (BIAevaluation Software version 4.1). The inhibition Each chemical feature was converted into distance constant (Ki) was derived from the Cheng-Prusoff bin and the complete set of distance bins used to construct equation Ki=IC50/(1+[C]/Kd) as used by Halling et al a cost matrix. The most favorable pairing based on cost where C stands for STAT3 concentration used in the SPR matrix was identified. assay and Kd denotes the dissociation constant for STAT3 3-D pharmacophore transformation binding to its phosphorylated EGFR ligand in the SPR […]
STAT3/pY-peptide binding assay and total protein extracted from cell pellets. […]
STAT3 binding assays were performed at 25 °C (Millipore, Danvers, MA) coupled to antibody against

pSTAT3 (Tyr-705) = target: T1, pSTAT3 (Tyr-705) (Homo sapiens, UniProt P40763); test: Phosphoflow, G-CSF-induced STAT3 phosphorylation in Kasumi-1 cells; format: cell-based; details: Kasumi-1, G-CSF 10 ng/ml 15 min; mean, n ≥ 2; read-out: Ligand Induced Phosphorylation (Phosphoflow) pSTAT3 (GCSF) IC50
T1 construct: endogenous in cells; host or cells: Kasumi-1
Method: (§1) The equilibrium binding levels obtained ± compound were normalized (resonance obtained in the presence of compound ÷ the resonance obtained in the absence of compound × 100) and plotted against Log [nM] […] B. Inhibition of ligand-stimulated STAT phosphorylation, measured by phosphoflow. Serum-starved (1 hour) Kasumi-1 cells, pre-incubated with compound/DMSO (1 hour), were treated with G-CSF (10 ng/ml, 15 min, left two panels) or IFN-γ (10ng/ml, 15 min, right panel). Cells were permeabilized and stained with Alexa647-pSTAT3, and PE-pSTAT1 antibodies and analyzed on BD LSR2. FCS files were uploaded to Cytobank for pSTAT3 and pSTAT1 quantitation. Histograms depicting pSTAT3 and pSTAT1 levels are shown. C. Mean fluorescence (pSTAT3/1) levels were plotted as function the Log [M] compound, and IC50 calculated using GraphPad. […] D. Inhibition of ligand-stimulated STAT phosphorylation, measured by Luminex. Serum-starved (1 hour) Kasumi-1 cells, pre-incubated with compound/DMSO (0/0.1/0.3/1/3/10/100 μM, 1 hour), were treated with G-CSF (10 ng/ml, 15′). Total protein extracts of cells were assayed for pSTAT3, pSTAT1, and GAPDH levels by Luminex. GAPDH-normalized pSTAT3 or pSTAT1 values were divided by this ratio for untreated cells and expressed in percentage. These values were plotted as a function of Log [M] compound, and IC50 values calculated using GraphPad.
(§2) Phosphoflow analysis was done as described in Xu et al. Briefly, Kasumi-1 cells, were serum-starved, pre-treated with compound or DMSO (1 hour, RT) and then stimulated with 20 μl of GCSF (10 ng/ml) for 15 minutes at 37°C. The cells were then permeabilized and stained with Alexa647-pSTAT3, Alexa488-pSTAT5 and PE-pSTAT1 antibodies and analyzed using the BD LSR2. FCS files were exported and uploaded to Cytobank for determination of phosphoproteins as earlier. Gating was done on live, single cells and then gates selected for positive ligand-activated pSTAT3 and pSTAT1. IC50 values were calculated using the GraphPad Prism.

pSTAT5 = test: Phosphoflow, G-CSF-induced pSTAT5 in Kasumi-1 cells; format: cell-based; details: mean, n ≥ 2, read-out: Ligand Induced Phosphorylation (Phosphoflow) pSTAT5 (G-CSF) IC50
Method: as §2

pSTAT1 (Tyr-701) = target: T2, pSTAT1 (Tyr-701) (Homo sapiens, UniProt P42224); test: Phosphoflow, IFN-γ-induced pSTAT1 in Kasumi-1 cells; format: cell-based; details: Kasumi-1, IFN-γ 10 ng/ml 15 min; mean, n ≥ 2; read-out: Ligand Induced Phosphorylation (Phosphoflow) pSTAT1 (IFN-γ) IC50
T2 construct: endogenous in cells; host or cells: Kasumi-1
T2 sequence (P42224 1-750): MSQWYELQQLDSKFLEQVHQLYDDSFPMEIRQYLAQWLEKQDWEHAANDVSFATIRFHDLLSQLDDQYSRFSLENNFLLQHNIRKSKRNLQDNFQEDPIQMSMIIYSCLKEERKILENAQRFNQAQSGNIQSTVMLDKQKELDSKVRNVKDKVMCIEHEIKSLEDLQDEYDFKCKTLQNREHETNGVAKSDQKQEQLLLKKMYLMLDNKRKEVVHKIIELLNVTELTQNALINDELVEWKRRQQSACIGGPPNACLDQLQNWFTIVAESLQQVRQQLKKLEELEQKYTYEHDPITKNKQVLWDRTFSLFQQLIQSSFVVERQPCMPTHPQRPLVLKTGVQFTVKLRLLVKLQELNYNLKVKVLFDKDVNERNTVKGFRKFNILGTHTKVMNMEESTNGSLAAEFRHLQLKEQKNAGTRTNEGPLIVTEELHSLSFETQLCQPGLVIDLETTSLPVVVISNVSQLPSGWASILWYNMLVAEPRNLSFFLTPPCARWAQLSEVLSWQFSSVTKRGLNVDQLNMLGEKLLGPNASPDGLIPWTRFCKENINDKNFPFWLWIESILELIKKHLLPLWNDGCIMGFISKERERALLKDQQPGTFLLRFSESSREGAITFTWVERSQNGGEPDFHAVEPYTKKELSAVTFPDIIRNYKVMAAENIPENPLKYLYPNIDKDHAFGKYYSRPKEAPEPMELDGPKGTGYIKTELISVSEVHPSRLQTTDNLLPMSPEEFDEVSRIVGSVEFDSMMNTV
Method: as §1, §2

Chain of STAT3 (P40763 whole entry, species assumed): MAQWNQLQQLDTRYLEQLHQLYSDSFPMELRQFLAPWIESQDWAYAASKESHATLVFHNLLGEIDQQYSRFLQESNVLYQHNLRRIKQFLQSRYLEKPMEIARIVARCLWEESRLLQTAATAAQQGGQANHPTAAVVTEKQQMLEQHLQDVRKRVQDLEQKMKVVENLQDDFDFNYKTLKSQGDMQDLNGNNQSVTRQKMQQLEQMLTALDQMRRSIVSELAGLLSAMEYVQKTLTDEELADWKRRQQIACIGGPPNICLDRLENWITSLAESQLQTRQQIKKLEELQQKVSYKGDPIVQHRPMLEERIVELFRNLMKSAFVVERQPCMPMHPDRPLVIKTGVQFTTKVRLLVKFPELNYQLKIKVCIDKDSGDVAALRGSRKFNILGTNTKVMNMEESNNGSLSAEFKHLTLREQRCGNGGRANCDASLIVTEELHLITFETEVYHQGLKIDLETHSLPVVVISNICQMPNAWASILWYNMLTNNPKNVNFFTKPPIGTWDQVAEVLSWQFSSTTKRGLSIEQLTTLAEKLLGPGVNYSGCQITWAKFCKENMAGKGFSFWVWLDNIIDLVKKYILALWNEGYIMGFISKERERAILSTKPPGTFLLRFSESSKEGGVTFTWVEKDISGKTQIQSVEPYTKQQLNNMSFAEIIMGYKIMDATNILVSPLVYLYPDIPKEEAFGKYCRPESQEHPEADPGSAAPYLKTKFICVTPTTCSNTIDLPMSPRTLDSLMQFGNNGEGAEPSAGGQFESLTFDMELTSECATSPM
T1 sequence (P40763 whole entry): as the sequence (P40763 whole entry, species assumed) above

| SMILES | IC50 (STAT3) [µM] | IC50 (pSTAT3 (Tyr-705)) [µM] | IC50 (pSTAT5) [µM] | IC50 (pSTAT1 (Tyr-701)) [µM] | Inhibition of STAT3 binding to pY-peptide compared with C188 (STAT3) |
| --- | --- | --- | --- | --- | --- |
| Cc1ccc(S(=O)(=O)Nc2cc3sc(=O)oc3c3ccccc23)c(C)c1 [Compound C188-32] | 48 ± 19.8 | 7.5 ± 3.6 | > 300 | 3 | – |
| CC1(C)CC(=O)c2c(oc3c2cc(NS(=O)(=O)c2ccc(Br)cc2)c2ccccc23)C1 [Compound C188-25] | 45 ± 8.5 | > 300 | > 300 | 17 | – |
| CCc1ccc(S(=O)(=O)Nc2cc3c(C(=O)OCCOC)c(C)oc3c3ccccc23)cc1 [Compound C188-22] | 73 ± 17 | > 300 | > 300 | > 300 | – |
| O=[N+]([O-])c1cccc(S(=O)(=O)Nc2cc(Sc3nc4ccccc4s3)c(O)c3ccccc23)c1 [Compound C188-1] | 5.5 ± 2.1 | 16.2 ± 24.1 | 1.5 | 50.5 ± 53 | improved inhibition |
| Cc1oc2c(cc(NS(=O)(=O)c3ccc(Cl)cc3)c3ccccc32)c1C(=O)OCc1ccccc1 [Compound C188-30] | 70.5 ± 70 | > 300 | > 300 | > 300 | – |
| O=S(=O)(Nc1ccc(O)c2ccccc12)c1ccccc1 [Compound C188-21] | > 300 | 15 ± 17 | – | > 300 | – |
| CC(=O)Oc1c(Br)cc(N(C(C)=O)S(=O)(=O)c2ccc(C)cc2)c2ccccc12 [Compound C188-28] | 71 ± 33.9 | – | > 300 | 10 | – |
| CC(=O)Nc1c([N+](=O)[O-])cc(N(C(C)=O)S(=O)(=O)c2ccccc2)c2ccccc12 [Compound C188-13] | 280 ± 41 | – | > 300 | > 300 | – |
| O=S(=O)(Nc1cc(Sc2nc[nH]n2)c(O)c2ccccc12)c1ccc(F)cc1 [Compound C188-17] | 3.5 ± 2.1 | > 300 | – | > 300 | improved inhibition |
| CCOC(=O)c1c(C)oc2c1cc(NS(=O)(=O)c1ccc(C(C)(C)C)cc1)c1ccccc12 [Compound C188-35] | 25.5 ± 6.4 | – | > 300 | > 300 | – |
| O=S(=O)(Nc1cc(Sc2ccccc2)c(O)c2ccccc12)c1ccc(F)cc1 [Compound C188-16] | 4 | – | > 300 | > 300 | improved inhibition |
| O=S(=O)(Nc1ccc(O)c2ccccc12)c1ccc(F)cc1 [Compound C188-27] | > 300 | – | > 300 | > 300 | – |
| Cc1ccc(S(=O)(=O)Nc2cc3c4c(oc3c3ccccc23)CCC(C(C)(C)C)C4)c(C)c1 (stereo not shown) [Compound C188-26] | 89 ± 2.8 | – | > 300 | – | – |
